Data as given in patent US20190151329A1, “THERAPEUTIC USE OF DIAMINOPHENOTHIAZINES” (WisTa Laboratories Ltd., priority 2007, published 2019).
Values joined by “and” are separate entries in the source; they are usually repeats but may differ in a detail not shown here. Equal entries are not always repeated. Where two headings read alike, the source gives them in different places.

How the values were obtained:
[1] = Pig single oral dose pharmacokinetic study (blood and brain); assay type: in vivo, pigs; conditions: single oral 20 mg/kg
Procedure: Finally, a comparison was made between the compartment predictions and the results from an oral study in which pigs were administered a single 20 mg/kg dose, and brain levels of MT were determined. […] Blood (0.5, 1, 2, 4, 8, 12, 24 and 48 h) and urine (1, 2, 3, 4, 5, 6, 7, 8, 12, and 24 h) were collected at regular timepoints up to 48 hrs. Two animals were sacrificed at each of 1, 8, 24 and 48 h post dose and brain samples retained. Pharmacokinetic evaluation of the free base of MTC was performed on whole blood and brain tissue samples. Two batches of brain tissue sample were extracted for each animal and analysed essentially as described by Peter et al (2000).
Brain tissue (500 mg) was vortexed and then extracted with dichloroethane (5 ml) and the organic phase taken to dryness under nitrogen. The extract was taken up with methanol and separated by reverse-phase HPLC with ultraviolet detection.

[2] = cited from earlier work; for L-MT urinary excretion rate / Ox-MT urinary excretion rate: 10 mg MTC oral
[3] = cited from earlier work; for Blood Ox-MT concentration: human whole blood
[4] = cited from earlier work
[5] = rats; IV; within 2 minutes; cited from earlier work
[6] = human, time 0.5 hr (mid-time 0.25 hr)
[7] = human, time 1 hr (mid-time 0.75 hr)
[8] = human, time 2 hr (mid-time 1.5 hr)
[9] = human, time 3 hr (mid-time 2.5 hr)
[10] = human, time 4 hr (mid-time 3.5 hr)
[11] = human, time 6 hr (mid-time 5 hr)
[12] = human, time 9 hr (mid-time 7.5 hr)
[13] = human, time 24 hr (mid-time 16.5 hr)
[14] = human, time 33 hr (mid-time 28.5 hr)
[15] = human, time 48 hr (mid-time 40.5 hr)
[16] = human, time 57 hr (mid-time 52.5 hr)
[17] = human, time 72 hr (mid-time 64.5 hr)
[18] = human, time 81 hr (mid-time 76.5 hr)
[19] = human, time 96 hr (mid-time 88.5 hr)
[20] = human, time 105 hr (mid-time 100.5 hr)
[21] = human, time 120 hr (mid-time 112.5 hr)
[22] = human, 10 mg oral, non-compartmental secondary parameter
[23] = human, 10 mg oral, urinary excretion data
[24] = repeat dose 15 mg/24 hr, day 14
[25] = repeat dose 15 mg/24 hr, day 21
[26] = repeat dose 300 mg/24 hr, day 7
[27] = repeat dose 300 mg/24 hr, day 14
[28] = repeat dose 300 mg/24 hr, day 21

half-life ([1]; brain, read-out: terminal elimination half-life, brain (converted)): 23.5 h
half-life ([1]; whole blood, read-out: terminal elimination half-life, blood (converted)): 23.5 h
SMILES: CN(C)c1ccc2nc3ccc(=[N+](C)C)cc-3sc2c1 [MTC, methylthioninium chloride]
terminal elimination half-life deduced by DiSanto and Wagner ([2]; from urinary excretion data): 15 to 16.5 h
L-MT urinary excretion rate [2, 6]: 14.01 µg/h
Ox-MT urinary excretion rate [2, 6]: 2.31 µg/h
L-MT urinary excretion rate [2, 7]: 385.06 µg/h
Ox-MT urinary excretion rate [2, 7]: 20.59 µg/h
L-MT urinary excretion rate [2, 8]: 659.14 µg/h
Ox-MT urinary excretion rate [2, 8]: 38.66 µg/h
L-MT urinary excretion rate [2, 9]: 474.29 µg/h
Ox-MT urinary excretion rate [2, 9]: 50.56 µg/h
L-MT urinary excretion rate [2, 10]: 384.43 µg/h
Ox-MT urinary excretion rate [2, 10]: 40.66 µg/h
L-MT urinary excretion rate [2, 11]: 290.50 µg/h
Ox-MT urinary excretion rate [2, 11]: 53.01 µg/h
L-MT urinary excretion rate [2, 12]: 120.29 µg/h
Ox-MT urinary excretion rate [2, 12]: 42.86 µg/h
L-MT urinary excretion rate [2, 13]: 78.72 µg/h
Ox-MT urinary excretion rate [2, 13]: 37.99 µg/h
L-MT urinary excretion rate [2, 14]: 41.87 µg/h
Ox-MT urinary excretion rate [2, 14]: 24.34 µg/h
L-MT urinary excretion rate [2, 15]: 26.77 µg/h
Ox-MT urinary excretion rate [2, 15]: 11.02 µg/h
L-MT urinary excretion rate [2, 16]: 14.11 µg/h
Ox-MT urinary excretion rate [2, 16]: 5.00 µg/h
L-MT urinary excretion rate [2, 17]: 7.88 µg/h
Ox-MT urinary excretion rate [2, 17]: 4.98 µg/h
L-MT urinary excretion rate [2, 18]: 6.39 µg/h
Ox-MT urinary excretion rate [2, 18]: 2.53 µg/h
L-MT urinary excretion rate [2, 19]: 3.09 µg/h
Ox-MT urinary excretion rate [2, 19]: 1.74 µg/h
L-MT urinary excretion rate [2, 20]: 3.02 µg/h
Ox-MT urinary excretion rate [2, 20]: 1.23 µg/h
L-MT urinary excretion rate [2, 21]: 1.91 µg/h
Ox-MT urinary excretion rate [2, 21]: 0.88 µg/h
MRT, Free (Ox-MTC) ([2]; human, 10 mg oral): 24.5000 h
MRT, Leuco (L-MT) ([2]; human, 10 mg oral): 16.8774 h
T½ (distribution), Free (Ox-MTC) ([2]; human, 10 mg oral): 0.5930 h
T½ (distribution), Leuco (L-MT) ([2]; human, 10 mg oral): 1.1530 h
T½ (elimination), Free (Ox-MTC) ([2]; human, 10 mg oral): 15.0364 h
T½ (elimination), Leuco (L-MT) ([2]; human, 10 mg oral): 16.4953 h
Urinary excretion (% of total), Free (Ox-MT) ([2]; human, 10 mg oral): 23% and 22.94%
Urinary excretion (% of total), Leuco (L-MT) ([2]; human, 10 mg oral): 77% and 77.06%
total urinary recovery ([2]; human, 10 mg oral): 65 % of dose
AUC, Leuco (L-MT) [2, 22]: 4981.55 µg·h
CI, Free (Ox-MTC) [2, 22]: 6.7420 L/h
CI, Leuco (L-MT) [2, 22]: 2.0074 L/h
F (calculated bioavailability), Free (Ox-MTC) [2, 22]: 0.1483
F (calculated bioavailability), Leuco (L-MT) [2, 22]: 0.4982
Vc, Free (Ox-MTC) [2, 22]: 4.4188 L
Vc, Leuco (L-MT) [2, 22]: 4.1152 L
K12, Free (Ox-MTC) [2, 23]: 0.7506
K12, Leuco (L-MT) [2, 23]: 0.2962
K21, Free (Ox-MTC) [2, 23]: 0.2381
Kel (terminal elimination rate constant), Free (Ox-MTC) [2, 23]: 0.2263
Kel (terminal elimination rate constant), Leuco (L-MT) [2, 23]: 0.2430
Tlag, Free (Ox-MTC) [2, 23]: 0.2078 h
Tlag, Leuco (L-MT) [2, 23]: 0.2381 h
VcF (Vc × F), Leuco (L-MT) [2, 23]: 8.2607 L
terminal elimination half-life (Ox-MT and L-MT comparable) [2, 23]: ~16 h
corrected apparent central volume (Ox-MT and L-MT comparable) ([2]; in vivo, po): 4 L
terminal elimination half-life deduced by Peter et al. ([3]; from analysis of blood concentration data): 5.5 to 6.3 h
Blood Ox-MT concentration ([3]; 100 mg MTC IV, 0.09 hr): 6.06 µmol/L
Blood Ox-MT concentration ([3]; 100 mg MTC IV, 0.15 hr): 3.32 µmol/L
Blood Ox-MT concentration ([3]; 100 mg MTC IV, 0.24 hr): 1.73 µmol/L
Blood Ox-MT concentration ([3]; 100 mg MTC IV, 0.33 hr): 1.65 µmol/L
Blood Ox-MT concentration ([3]; 100 mg MTC IV, 0.5 hr): 0.78 µmol/L
Blood Ox-MT concentration ([3]; 100 mg MTC IV, 0.65 hr): 0.61 µmol/L
Blood Ox-MT concentration ([3]; 100 mg MTC IV, 0.83 hr): 0.39 µmol/L
Blood Ox-MT concentration ([3]; 100 mg MTC IV, 1.01 hr): 0.41 µmol/L
Blood Ox-MT concentration ([3]; 100 mg MTC IV, 1.99 hr): 0.26 µmol/L
Blood Ox-MT concentration ([3]; 100 mg MTC IV, 4 hr): 0.18 µmol/L
Blood Ox-MT concentration ([3]; 100 mg MTC oral (mean of with and without Mesna), 0 hr): 0 µmol/L
Blood Ox-MT concentration ([3]; 100 mg MTC oral (mean of with and without Mesna), 0.09 hr): 0.00064 µmol/L
Blood Ox-MT concentration ([3]; 100 mg MTC oral (mean of with and without Mesna), 0.15 hr): 0.0011 µmol/L
Blood Ox-MT concentration ([3]; 100 mg MTC oral (mean of with and without Mesna), 0.24 hr): 0.0064 µmol/L
Blood Ox-MT concentration ([3]; 100 mg MTC oral (mean of with and without Mesna), 0.33 hr): 0.017 µmol/L
Blood Ox-MT concentration ([3]; 100 mg MTC oral (mean of with and without Mesna), 0.5 hr): 0.041 µmol/L
Blood Ox-MT concentration ([3]; 100 mg MTC oral (mean of with and without Mesna), 0.83 hr): 0.055 µmol/L
Blood Ox-MT concentration ([3]; 100 mg MTC oral (mean of with and without Mesna), 1.01 hr): 0.064 µmol/L
Blood Ox-MT concentration ([3]; 100 mg MTC oral (mean of with and without Mesna), 1.99 hr): 0.069 µmol/L
Blood Ox-MT concentration ([3]; 100 mg MTC oral (mean of with and without Mesna), 4 hr): 0.038 µmol/L
% of dose excreted in urine at 24 hr ([3]; human, 100 mg MTC, IV): 28.6 % of dose
AUC ([3]; human, 100 mg MTC, IV): 0.134 µmol/min/mL
Cl (clearance) ([3]; human, 100 mg MTC, IV): 3 L/h
Estimated elimination T½: blood (1-4 hr) ([3]; human, 100 mg MTC, IV): 5.25 h
% of dose excreted in urine at 24 hr ([3]; human, 100 mg MTC, Oral): 18.6 % of dose
AUC ([3]; human, 100 mg MTC, Oral): 0.011 µmol/min/mL
Estimated elimination T½: urine (4-24 hr) ([3]; human, 100 mg MTC, Oral): 6.6 h
fraction of total MT excreted in the urine in the L-MB form ([3]; human, did not differ between oral and IV dosing): approximately ⅓
24 hr urinary excretion, L-MT (summary line) ([4]; repeat dose 15 mg/24 hr): 7.2 mg
24 hr urinary excretion, Ox-MT (summary line) ([4]; repeat dose 15 mg/24 hr): 5.8 mg
% of total urinary excretion, L-MT ([4]; repeat dose 15 mg/24 hr): 55.3%
% of total urinary excretion, Ox-MT ([4]; repeat dose 15 mg/24 hr): 44.8%
F (apparent bioavailability), L-MT ([4]; repeat dose 15 mg/24 hr): 0.48
F (apparent bioavailability), Ox-MT ([4]; repeat dose 15 mg/24 hr): 0.39
24-hr urinary excretion, L-MT ([4]; repeat dose 15 mg/24 hr, day 7): 7.2 mg
24-hr urinary excretion, Ox-MT ([4]; repeat dose 15 mg/24 hr, day 7): 6.1 mg
24-hr urinary excretion, L-MT [4, 24]: 8 mg
24-hr urinary excretion, Ox-MT [4, 24]: 5.3 mg
24-hr urinary excretion, L-MT [4, 25]: 6.4 mg
24-hr urinary excretion, Ox-MT [4, 25]: 6.1 mg
24 hr urinary excretion, L-MT (summary line) ([4]; repeat dose 300 mg/24 hr): 69.2 mg
24 hr urinary excretion, Ox-MT (summary line) ([4]; repeat dose 300 mg/24 hr): 43.4 mg
% of total urinary excretion, L-MT ([4]; repeat dose 300 mg/24 hr): 61.5%
% of total urinary excretion, Ox-MT ([4]; repeat dose 300 mg/24 hr): 38.6%
F (apparent bioavailability), L-MT ([4]; repeat dose 300 mg/24 hr): 0.23
F (apparent bioavailability), Ox-MT ([4]; repeat dose 300 mg/24 hr): 0.14
24-hr urinary excretion, L-MT [4, 26]: 75.6 mg
24-hr urinary excretion, Ox-MT [4, 26]: 43.9 mg
24-hr urinary excretion, L-MT [4, 27]: 71.6 mg
24-hr urinary excretion, Ox-MT [4, 27]: 41.1 mg
24-hr urinary excretion, L-MT [4, 28]: 60.4 mg
24-hr urinary excretion, Ox-MT [4, 28]: 45.2 mg
% of total urinary excretion, L-MT ([4]; single dose 25 mg): 15.8%
% of total urinary excretion, Ox-MT ([4]; single dose 25 mg): 84.2%
F (apparent bioavailability), L-MT ([4]; single dose 25 mg): 0.11
F (apparent bioavailability), Ox-MT ([4]; single dose 25 mg): 0.60
F (apparent bioavailability), Total-MT ([4]; single dose 25 mg): 0.71
urinary excretion, L-MT ([4]; single dose 25 mg): 2.8 mg
urinary excretion, Ox-MT ([4]; single dose 25 mg): 14.9 mg
urinary excretion, Total-MT ([4]; single dose 25 mg): 17.7 mg
% of total urinary excretion, L-MT ([4]; single dose 50 mg): 8.8%
% of total urinary excretion, Ox-MT ([4]; single dose 50 mg): 91.2%
F (apparent bioavailability), L-MT ([4]; single dose 50 mg): 0.054
F (apparent bioavailability), Ox-MT ([4]; single dose 50 mg): 0.56
F (apparent bioavailability), Total-MT ([4]; single dose 50 mg): 0.62
urinary excretion, L-MT ([4]; single dose 50 mg): 2.7 mg
urinary excretion, Ox-MT ([4]; single dose 50 mg): 28.1 mg
urinary excretion, Total-MT ([4]; single dose 50 mg): 30.8 mg
% of total urinary excretion, L-MT ([4]; single dose 100 mg): 15.2%
% of total urinary excretion, Ox-MT ([4]; single dose 100 mg): 84.8%
F (apparent bioavailability), L-MT ([4]; single dose 100 mg): 0.060
F (apparent bioavailability), Ox-MT ([4]; single dose 100 mg): 0.34
F (apparent bioavailability), Total-MT ([4]; single dose 100 mg): 0.40
urinary excretion, L-MT ([4]; single dose 100 mg): 6 mg
urinary excretion, Ox-MT ([4]; single dose 100 mg): 33.5 mg
urinary excretion, Total-MT ([4]; single dose 100 mg): 39.5 mg
dose recovered from the major organs [5]: approximately 25%
